{
  "source": "patent US20260345510A1",
  "about": "“MEMBRANE COATED NANOPARTICLES FOR DRUG DELIVERY” (Arizona Board Regents on Behalf of Arizona State University, priority 2022, published 2026)",
  "system": "PL-induced carotid atherosclerosis in the LCA",
  "experiment": "Plaque development in partially ligated LCA (long-term experiment)",
  "format": "in vivo, mouse (ApoE−/−)",
  "details": "free drug counterpart, repeated doses, without photoactivation",
  "text": "All animal experiments performed in this study have been approved by the Institutional Animal Care and Use Committee (IACUC) of Arizona State University, USA. Male ApoE^−/− mice (8-12 weeks old), purchased from The Jackson Laboratory, were subjected to the partial ligation (PL) procedure to induce inflammation and carotid atherosclerosis in the left carotid artery (LCA). All mice were fed a high-fat diet (Envigo #TD.88137) for 1 week prior to the PL procedure and continued to be fed the same diet until the time of euthanasia. […] For biodistribution analysis, MoNP-DiD was administered via retro-orbital injection to mice that underwent the PL 1 week prior. The arterial tissue (from carotid bifurcation to abdominal aorta) and organs were harvested 4 hours after the injection, and DiD intensity was quantified for each of the three individual zones within the arterial segments using fluorescent imaging. Subsequently, the left common CA was embedded in Tissue-Tek O.C.T. compound, cryosectioned, and stained with a CD31 antibody (R&D Systems #AF3628) and DAPI. For organ assessment, various tissues (kidney, lung, heart, gut, liver, and spleen) and plasma were homogenized, and the fluorescent intensity in homogenized tissues was measured. […] Serum samples isolated from the mice were analyzed to determine their lipid profile and metabolic panel. […]",
  "data": [
    {"substance": "Verteporfin [free VP]", "values": [
      {"measurement": "plaque sizes", "value": "little-to-no effect on plaque sizes"}
    ]}
  ]
}
